In US20220241249A1, “PHARMACEUTICAL COMPOSITION AND KIT CONTAINING NOVEL PENAM DERIVATIVE OR SALT THEREOF AND ONE OR MORE COMPOUNDS SELECTED FROM beta-LACTAMASE INHIBITORY COMPOUND AND ANTIBACTERIAL COMPOUND OR SALTS THEREOF” (priority 2019, published 2022):
In brackets after ≈: the same amount, converted by molar mass.

What was measured:
[1] = system: AmpC-derepressed Pseudomonas aeruginosa mutant strain (S-3028); experiment: Antibacterial activity evaluation test, MIC by broth microdilution (CLSI); assay type: cell-based; conditions: Pseudomonas aeruginosa
Procedure, shortened: (§1)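 Colonies grown overnight on Mueller Hinton agar, suspended to 0.5 McFarland and diluted 10-fold as inoculum. Incubation in cation-adjusted Mueller Hinton broth with test compound at 35° C for 16–20 h. MIC (μg/mL) is the lowest concentration with no visible growth.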

[2] = system: CTX-M-15-containing Escherichia coli strain (TK-1747); experiment: as above; assay type: cell-based; conditions: Escherichia coli
Procedure, shortened: as §1

[3] = system: GES-19 and GES-20-containing Pseudomonas aeruginosa strain (S-3759); experiment: as above; assay type: cell-based; conditions: Pseudomonas aeruginosa
Procedure, shortened: as §1

[4] = system: IMP-1-containing Pseudomonas aeruginosa strain (S-2838); experiment: as above; assay type: cell-based; conditions: Pseudomonas aeruginosa
Procedure, shortened: as §1

[5] = system: KPC-2-containing Klebsiella pneumoniae strain (Y-995); experiment: as above; assay type: cell-based; conditions: Klebsiella pneumoniae
Procedure, shortened: as §1

[6] = system: NDM-1-containing Klebsiella pneumoniae strain (Y-1007); experiment: as above; assay type: cell-based; conditions: Klebsiella pneumoniae
Procedure, shortened: as §1

[7] = system: OXA-48-containing Klebsiella pneumoniae strain (Y-1062); experiment: as above; assay type: cell-based; conditions: Klebsiella pneumoniae
Procedure, shortened: as §1

[8] = system: Pseudomonas aeruginosa strain ATCC27853; experiment: as above; assay type: cell-based; conditions: Pseudomonas aeruginosa, ATCC27853
Procedure, shortened: as §1

[9] = system: VIM-2-containing Pseudomonas aeruginosa strain (S-3779); experiment: as above; assay type: cell-based; conditions: Pseudomonas aeruginosa
Procedure, shortened: as §1

[10] = system: multidrug-resistant Pseudomonas aeruginosa strain (S-2838 strain); experiment: Test for protection against systemic infection in mouse with multidrug-resistant Pseudomonas aeruginosa; assay type: in vivo; conditions: sc, 72 h, read-out: survival rate 3 days after the inoculation with bacteria
Protocol: As mice, ICR male SPF mice (4 weeks old: 10 mice per group) were used. Clinically isolated multidrug-resistant Pseudomonas aeruginosa strain (S-2838 strain) cultured overnight on a Mueller-Hinton agar plate at 37° C. was cultured on a cation-adjusted Mueller Hinton medium for 5 hours, and then diluted 20-fold with a 10% mucin/phosphate buffer, thereby preparing an inoculum. An infection was induced by intraperitoneally inoculating the mice with the inoculum at 0.5 mL (about 10^6 CFU/mouse). Each test compound was dissolved in physiological saline, and 1 hour after the infection, the compound was subcutaneously administered once to the mice at 40 mg/kg. The control group was administered with the same amount of physiological saline used as a vehicle. The number of surviving mice was recorded 3 days after the infection.
A test for protection against systemic infection in a mouse with multidrug-resistant Pseudomonas aeruginosa was performed in the same manner as in Test Example 2.

Q: Which MIC [1] does the source give for `Nc1nc(/C(=N/OC2(C(=O)O)CC2)C(=O)N[C@@H]2C(=O)N3C[C@@](C(=O)O)(N4CCN(NC(=O)CCNC(=O)C(=O)c5ccc(O)c(O)c5Cl)C4=O)S[C@H]23)cs1` [Example 31, (3R,5R,6R)-6-((Z)-2-(2-aminothiazol-4-yl)-2-((1-carboxycyclopropoxy)imino)acetamido)-3-(3-(3-(2-(2-chloro-3,4-dihydroxyphenyl)-2-oxoacetamido)propanamido)-2-oxoimidazolidin-1-yl)-7-oxo-4-thia-1-azabicyclo[3.2.0]heptane-3-carboxylic acid] here?
A: < 0.06 µg/mL

Q: And the MIC [2]?
A: 1 µg/mL (≈ 1.23 µM)

Q: What about the MIC [3] of the same compound?
A: 0.5 µg/mL (≈ 0.617 µM)

Q: What about the MIC [4] of the same compound?
A: 1 µg/mL (≈ 1.23 µM)

Q: And the MIC [5]?
A: 0.12 µg/mL (≈ 0.148 µM)

Q: What about the MIC [6] of the same compound?
A: 0.12 µg/mL (≈ 0.148 µM)

Q: And the MIC [7]?
A: 1 µg/mL (≈ 1.23 µM)

Q: And the MIC [8]?
A: 0.25 µg/mL (≈ 0.309 µM)

Q: And the MIC [9]?
A: 0.25 µg/mL (≈ 0.309 µM)

Q: And the responders at 40 mg/kg [10]?
A: ≥ 90%

Q: Which MIC [1] does the source give for `CC(C)[C@H](O/N=C(\C(=O)NC1C(=O)N2C[C@@](C(=O)O)(N3CCN(NC(=O)C(=O)c4ccc(O)c(O)c4Cl)C3=O)S[C@H]12)c1csc(N)n1)C(=O)O` (stereo partly drawn) [Example 114, (3R,5R,6R)-6-((Z)-2-(2-aminothiazol-4-yl)-2-(((S)-1-carboxy-2-methylpropoxy)imino)-acetamido)-3-(3-(2-(2-chloro-3,4-dihydroxy-phenyl)-2-oxoaceta-mido)-2-oxoimidazol-idin-1-yl)-7-oxo-4-thia-1-azabicyclo[3.2.0]-heptane-3-carboxylic acid] here?
A: 1 µg/mL (≈ 1.32 µM)

Q: And the MIC [2]?
A: 0.25 µg/mL (≈ 0.331 µM)

Q: And the MIC [3]?
A: 2 µg/mL (≈ 2.65 µM)

Q: And the MIC [4]?
A: 4 µg/mL (≈ 5.3 µM)

Q: What about the MIC [5] of the same compound?
A: 0.25 µg/mL (≈ 0.331 µM)

Q: And the MIC [6]?
A: < 0.06 µg/mL

Q: And the MIC [7]?
A: 0.25 µg/mL (≈ 0.331 µM)

Q: What about the MIC [8] of the same compound?
A: 2 µg/mL (≈ 2.65 µM)

Q: And the MIC [9]?
A: 1 µg/mL (≈ 1.32 µM)

Q: And the responders at 40 mg/kg [10]?
A: ≥ 90%

Q: For `Nc1nc(/C(=N/OC2(C(=O)O)CCC2)C(=O)N[C@@H]2C(=O)N3C[C@@](C(=O)O)(N4CCN(NC(=O)C(=O)c5ccc(O)c(O)c5Cl)C4=O)S[C@H]23)cs1` [Example 19, (3R,5R,6R)-6-((Z)-2-(2-aminothiazol-4-yl)-2-((-1-carboxycyclobutoxy)imino)acetamido)-3-(3-(2-(2-chloro-3,4-dihydroxyphenyl)-2-oxoacetamido)-2-oxoimidazolidin-1-yl)-7-oxo-4-thia-1-azabicyclo[3.2.0]heptane-3-carboxylic acid], which MIC [1] is on record?
A: 2 µg/mL (≈ 2.66 µM)

Q: What about the MIC [2] of the same compound?
A: 0.5 µg/mL (≈ 0.664 µM)

Q: And the MIC [3]?
A: 0.25 µg/mL (≈ 0.332 µM)

Q: What about the MIC [4] of the same compound?
A: 0.25 µg/mL (≈ 0.332 µM)

Q: And the MIC [5]?
A: 0.25 µg/mL (≈ 0.332 µM)

Q: What about the MIC [6] of the same compound?
A: < 0.06 µg/mL

Q: And the MIC [7]?
A: 0.12 µg/mL (≈ 0.159 µM)

Q: What about the MIC [8] of the same compound?
A: 0.25 µg/mL (≈ 0.332 µM)

Q: And the MIC [9]?
A: 0.25 µg/mL (≈ 0.332 µM)

Q: What about the responders at 40 mg/kg [10] of the same compound?
A: ≥ 90%

Q: With `CC(C)(O/N=C(\C(=O)NC1C(=O)N2C[C@@](C(=O)O)(N3CCN(NC(=O)CCNC(=O)/C(=N\O)c4ccc(O)c(O)c4Cl)C3=O)S[C@H]12)c1csc(N)n1)C(=O)O` (stereo partly shown) [Example 122] as the compound, how does the MIC [1] read?
A: 2 µg/mL (≈ 2.42 µM)

Q: What about the MIC [2] of the same compound?
A: 0.5 µg/mL (≈ 0.604 µM)

Q: And the MIC [3]?
A: 2 µg/mL (≈ 2.42 µM)

Q: And the MIC [4]?
A: 2 µg/mL (≈ 2.42 µM)

Q: And the MIC [5]?
A: 0.5 µg/mL (≈ 0.604 µM)

Q: And the MIC [6]?
A: < 0.06 µg/mL

Q: What about the MIC [7] of the same compound?
A: 1 µg/mL (≈ 1.21 µM)

Q: And the MIC [8]?
A: 1 µg/mL (≈ 1.21 µM)

Q: What about the MIC [9] of the same compound?
A: 2 µg/mL (≈ 2.42 µM)

Q: And the responders at 40 mg/kg [10]?
A: ≥ 90%

Q: How did the MIC [1] turn out when `COCC(NC(=O)C(=O)c1ccc(O)c(O)c1Cl)C(=O)NN1CCN([C@]2(C(=O)O)CN3C(=O)C(NC(=O)/C(=N\OC(C)(C)C(=O)O)c4csc(N)n4)[C@H]3S2)C1=O` (stereo partly drawn) [Example 139, (3R,5R,6R)-6-((Z)-2-(2-aminothiazol-4-yl)-2-(((2-carboxypropan-2-yl)oxy)imino)aceta-mido)-3-(3-((R)-2-(2-(2-chloro-3,4-dihy-droxyphenyl)-2-oxo-acetamido)-3-methoxy-propanamido)-2-oxo-imidazolidin-1-yl)-7-oxo-4-thia-1-azabicyclo-[3.2.0]heptane-3-car-boxylic acid] was run?
A: 0.5 µg/mL (≈ 0.594 µM)

Q: What about the MIC [2] of the same compound?
A: 2 µg/mL (≈ 2.37 µM)

Q: And the MIC [3]?
A: 2 µg/mL (≈ 2.37 µM)

Q: And the MIC [4]?
A: 0.5 µg/mL (≈ 0.594 µM)

Q: And the MIC [5]?
A: 1 µg/mL (≈ 1.19 µM)

Q: What about the MIC [6] of the same compound?
A: 0.12 µg/mL (≈ 0.142 µM)

Q: What about the MIC [7] of the same compound?
A: 4 µg/mL (≈ 4.75 µM)

Q: What about the MIC [8] of the same compound?
A: 1 µg/mL (≈ 1.19 µM)

Q: What about the MIC [9] of the same compound?
A: 1 µg/mL (≈ 1.19 µM)

Q: What about the responders at 40 mg/kg [10] of the same compound?
A: ≥ 90%

Q: With `CC(C)(O/N=C(\C(=O)N[C@@H]1C(=O)N2C[C@@](C(=O)O)(N3CCN(NC(=O)C(=O)c4ccc(O)c(O)c4Cl)C3=O)S[C@H]12)c1nsc(N)n1)C(=O)O` [Example 23, (3R,5R,6R)-6-((Z)-2-(5-amino-1,2,4-thiadiazol-3-yl)-2-(((2-carboxypropan-2-yl)oxy)imino)acetamido)-3-(3-(2-(2-chloro-3,4-dihydroxyphenyl)-2-oxoacetamido)-2-oxoimidazolidin-1-yl)-7-oxo-4-thia-1-azabicyclo[3.2.0]heptane-3-carboxylic acid] as the compound, how does the MIC [1] read?
A: 0.5 µg/mL (≈ 0.674 µM)

Q: And the MIC [2]?
A: 0.25 µg/mL (≈ 0.337 µM)

Q: What about the MIC [3] of the same compound?
A: 1 µg/mL (≈ 1.35 µM)

Q: And the MIC [4]?
A: 1 µg/mL (≈ 1.35 µM)

Q: And the MIC [5]?
A: 0.25 µg/mL (≈ 0.337 µM)

Q: And the MIC [6]?
A: < 0.06 µg/mL

Q: And the MIC [7]?
A: 0.5 µg/mL (≈ 0.674 µM)

Q: And the MIC [8]?
A: 0.25 µg/mL (≈ 0.337 µM)

Q: And the MIC [9]?
A: 0.25 µg/mL (≈ 0.337 µM)

Q: What about the responders at 40 mg/kg [10] of the same compound?
A: ≥ 90%

Q: Which results are given for `CC(C)(O/N=C(\C(=O)NC1C(=O)N2C[C@@](C(=O)O)(N3CCN(NC(=O)/C(=N\O)c4ccc(O)c(O)c4Cl)C3=O)S[C@H]12)c1csc(N)n1)C(=O)O` (stereo partly shown) [Example 117]?
A: MIC [1]: 0.25 µg/mL (≈ 0.331 µM); MIC [2]: 0.12 µg/mL (≈ 0.159 µM); MIC [3]: 2 µg/mL (≈ 2.65 µM); MIC [4]: 2 µg/mL (≈ 2.65 µM); MIC [5]: 0.25 µg/mL (≈ 0.331 µM); MIC [6]: < 0.06 µg/mL; MIC [7]: 0.5 µg/mL (≈ 0.661 µM); MIC [8]: 2 µg/mL (≈ 2.65 µM); MIC [9]: 0.5 µg/mL (≈ 0.661 µM); responders at 40 mg/kg [10]: ≥ 90%
